“Also recorded” adds a separate entry of the source. Peptide text beside a SMILES is read from it. * marks the point of attachment. Cbz = O=C(OCc1ccccc1)*
How the values were obtained:
YFP-NS3pro-NS4A = assay: degradation pathway of YFP-NS3pro-NS4A in HeLa cells; type: cell-based; conditions: ASV 1 μM, 18 to 24 hours post-transfection, MG132 10 μM, bortezomib 66 nM, chloroquine 100 μM, bafilomycin-A1 200 nM
Text: FIGS. 8A-8D show characterization of a degron contained in NS3pro-NS4A. […] The hydrophobic N-terminal of NS4A then inserts into the membrane (right). Elements are numbered from N-terminus to C-terminus to clarify order of linkage. […] Removal of the NS3 helicase domain may expose hydrophobic residues in the helicase C-terminus and prevent cleavage at the NS3/4A site, preventing membrane insertion of NS4A. Models were generated using PDB file 1CU1. […] HeLa cells expressed YFP (FIG. 8C) or PSD95 (FIG. 8D) fused to NS3pro-NS4A (wt), or the degron-disrupted mutant (GGS). From 18 to 24 hours post-transfection, cells were treated with ASV (1 μM) and degradation inhibitors (MG, MG132 10 μM; BTZ, bortezomib 66 nM; CHQ, chloroquine 100 μM; BAF, bafilomycin-A1 200 nM). This short time window was used to avoid toxicity by degradation inhibitors. Final DMSO concentration was 0.23% (v/v) for all conditions in (FIG. 8C) and 0.33% for all conditions in (FIG. 8D).
To determine which cellular proteolytic pathways were responsible for degrading NS3pro-NS4A fusions, we examined the effect of inhibiting proteasomes or autophagosomes. We allowed cells expressing YFP-NS3pro-NS4A to produce uncleaved YFP-NS3pro-NS4A in asunaprevir while applying inhibitors of proteasome or autophagosome degradation (FIG. 8C).
Chemical Reagents. […]. Further serial dilutions were performed for the dose-dependency experiment. For long-term CLV and ASV incubations, drug was applied simultaneously with transfection media or 1-2 hours after transfection. MG132 (Sigma) was dissolved in DMSO for a 1000× working stock of 10 mM. Bortezomib (Adooq Biosci.) was dissolved in DMSO for a 500× working stock of 33 μM. Chloroquine diphosphate salt (Sigma) was dissolved in H2O for a 1000× (100 mM) working stock. Bafilomycin A1 (Santa Cruz) was dissolved in DMSO for a 500× (100 μM) working stock. Azidohomoalanine (AHA) (Click-IT, Invitrogen) was dissolved in DMSO for a 500× working stock of 25 mM. Alkyne-PEG4-biotin (Invitrogen) was dissolved in DMSO for a 100× working stock of 4 mM. L-cystine dihydrochloride (Sigma) was dissolved in H2O pH 2.0 for a working stock of 0.1 M.

SMASh-YFP or YFP-SMASh [1] = assay: drug repression of SMASh-tagged YFP in budding yeast; type: cell-based, S. cerevisiae; conditions: 24 hours, SD media
Text: When expressed in yeast from an episomal gene, we found the C-terminal SMASh tag with a protease cleavage site of sequence DEMEEC/S was able to confer drug repression on YFP expression, similarly to its performance in mammalian cells (FIG. 5A, lane 4-6). However, the N-terminal SMASh tag and fast-cleaving site (EDVVPC/S) used in mammalian cells allowed leaky expression of YFP in yeast in the presence of drug (data not shown). […] . […] To the best of our knowledge, SMASh is the first method that uses a single genetic element to impose drug control over the expression of specific proteins in yeast.
Yeast Strains and Cell Growth.

SMASh-YFP or YFP-SMASh [2] = assay: SMASh tag at either terminus of YFP in HEK293 cells; type: cell-based; conditions: HEK293, 24 hours
Text: NS3 protease sequence (light gray), sequence derived from NS3 helicase (dark gray), and sequence derived from NS4A (medium gray) are shown. NS5A/5B-based protease substrate site is in dark gray. […] DMSO was used as vehicle control. β-actin served as a loading control. […] Scale bar, […].

[3] = system: panel of cellular proteases; conditions: 1.5 μM; cited from earlier work
[4] = in vivo, po; cited from earlier work
YSH1-SMASh yeast = assay: yeast spotting assay, YSH1-SMASh knock-in; conditions: ASV (10 μM), 48 hours
SEC14-SMASh yeast = assay: yeast spotting assay, SEC14-SMASh knock-in; conditions: ASV (3 μM), 48 hours
MeV-EGFP-P-SMASh = assay: drug control of MeV-EGFP-P-SMASh in infected Vero cells
MeV-EGFP = assay: drug effect on parental MeV-EGFP in infected Vero cells; conditions: presence of asunaprevir, 72 hours
SMASh-Arc = assay: optimization of N-terminal SMASh tag on Arc in HEK293 cells, immunoblot; conditions: HEK293, 24 hours
GluRIIA-CFP-SMASh = GluRIIA-CFP-SMASh (Hepatitis C virus genotype 1a, UniProt P27958, T1080A/T1100M/T1173A); type: cell-based, Drosophila; conditions: HEK293, 24 hours
HEK293 cells = assay: protein half-life by SMASh shutoff, immunoblotting and mathematical model
[5] = system: AID target protein expressed from the ADH promoter; conditions: cited from earlier work

Which YFP-NS3pro-NS4A protein levels (YFP-NS3pro-NS4A) does the source give for `CC(C)C[C@@H](C=O)NC(=O)[C@H](CC(C)C)NC(=O)[C@H](CC(C)C)NC(=O)OCc1ccccc1` [MG132] (Cbz-Leu-Leu-Leu-aldehyde) here?
Its YFP-NS3pro-NS4A protein levels is “modestly increased”.

What does the source list for `C=C[C@@H]1C[C@]1(NC(=O)[C@@H]1C[C@@H](Oc2ncc(OC)c3ccc(Cl)cc23)CN1C(=O)[C@@H](NC(=O)OC(C)(C)C)C(C)(C)C)C(=O)NS(=O)(=O)C1CC1` [asunaprevir]?
YFP expression, episomal, GPD promoter (SMASh-YFP or YFP-SMASh [1]; 3 μM asunaprevir): undetectable levels; also recorded: completely suppressed; YFP expression, YFP-SMASh integrated into yeast chromosome, GPD promoter (SMASh-YFP or YFP-SMASh [1]; ASV, immunoblot): shutoff; YFP fluorescence in living cells (SMASh-YFP or YFP-SMASh [2]): nearly undetectable; cleaved and full-length YFP protein, immunoblot (SMASh-YFP or YFP-SMASh [2]; N-terminal or C-terminal fusions): significantly reduced; activity against a panel of cellular proteases [3]: no activity; concentration that can be maintained in plasma and organs for hours [4]: 150 nM; growth of YSH1-SMASh yeast (YSH1-SMASh yeast): suppressed; growth of SEC14-SMASh yeast (SEC14-SMASh yeast): complete growth inhibition; suppression of EGFP fluorescence compared to the untreated case (MeV-EGFP-P-SMASh; 3 μM ASV, 3 days post-transfection (so in the source), Vero cells): 97.3%; P production in virus-infected cells, immunoblotting (MeV-EGFP-P-SMASh; presence of asunaprevir): efficiently inhibited; EGFP expression and formation of syncytia (MeV-EGFP-P-SMASh; presence of asunaprevir, Vero cells, 72 hours): completely abolished; EGFP expression and formation of syncytia by parental virus (MeV-EGFP): unaffected; Arc protein suppression, 6-aa linker with the NS5A/5B substrate (SMASh-Arc): complete protein suppression; Arc protein suppression, 18-aa linker with the NS5A/5B substrate (SMASh-Arc): incomplete

With `COc1ccc2c(O[C@@H]3C[C@H]4C(=O)N[C@]5(C(=O)O)C[C@H]5/C=C\CCCCC[C@H](NC(=O)OC5CCCC5)C(=O)N4C3)cc(-c3csc(NC(C)C)n3)nc2c1` [ciluprevir] as the compound, how does the GluRIIA expression (GluRIIA-CFP-SMASh) read?
The GluRIIA expression was “shutoff”.

With `CC(C)C[C@H](NC(=O)[C@H](Cc1ccccc1)NC(=O)c1cnccn1)B(O)O` [bortezomib] as the compound, how does the YFP-NS3pro-NS4A protein levels (YFP-NS3pro-NS4A) read?
The YFP-NS3pro-NS4A protein levels was “modestly increased”.

For “CYP21A2: short-lived protein, released from CYP21A2-SMASh by cleavage”, which “acceleration of degradation by SMASh” value (HEK293 cells) is on record?
The value was 9 fold.

What about the “decay rate constant kdeg” value (HEK293 cells) of the same compound?
The value was 8.67e-05 s⁻¹.

And the “production rate constant ksyn” value (HEK293 cells; 24-28 hours post-transfection)?
The value was 0.438 h⁻¹.

With `CO/C1=C\C(C)=C\[C@@H](C)[C@@H](O)[C@@H](C)C/C(C)=C/C=C/[C@H](OC)[C@@H]([C@@H](C)[C@@H](O)[C@H](C)[C@@]2(O)C[C@@H](O)[C@H](C)[C@@H](C(C)C)O2)OC1=O` [bafilomycin A1] as the compound, how does the YFP-NS3pro-NS4A protein levels (YFP-NS3pro-NS4A) read?
Its YFP-NS3pro-NS4A protein levels is “modestly increased”.

With `O=C(O)Cc1c[nH]c2ccccc12` [auxin] as the compound, how does the “concentration required for AID to degrade a target protein” value [5] read?
The value was 1000 µM.

With `CCN(CC)CCCC(C)Nc1ccnc2cc(Cl)ccc12` (centres unmarked) [chloroquine] as the compound, how does the YFP-NS3pro-NS4A protein levels (YFP-NS3pro-NS4A) read?
Its YFP-NS3pro-NS4A protein levels is “modestly increased”.

Source: patent US10550379B2, “Degron fusion constructs and methods for controlling protein production” (THE BOARD OF TRUSTEES OF THE LELAND STANFORD JUNIOR …, priority 2015, dated 2020)
